Measured values as given in the NIST ThermoML archive (doi:10.1016/j.jct.2012.02.023).

Assay: xn = mol fraction of the nth substance listed
Conditions: 101 kPa, Liquid; for speed of sound: Sing-around technique in a fixed-path interferometer; for mass density: Vibrating tube method

CCCC[n+]1ccc(C)cc1.F[B-](F)(F)F [1-butyl-4-methylpyridinium tetrafluoroborate] + CO
Conditions	mass density, 293.15 K [kg/m3]	mass density, 303.15 K [kg/m3]	mass density, 313.15 K [kg/m3]	mass density, 323.15 K [kg/m3]	speed of sound, 293.15 K [m/s]	speed of sound, 303.15 K [m/s]	speed of sound, 313.15 K [m/s]	speed of sound, 323.15 K [m/s]
x1 = 0.0507	881.091	872.29	863.158	854.017	1208.6	1178.1	1148.1	1119.5
x1 = 0.0989	939.26	930.783	922.085	–	1271.8	1242.3	1214.2	–
x1 = 0.1922	1013.58	1005.46	997.343	989.026	1364.3	1337.8	1311.3	1289
x1 = 0.2934	1064.12	1056.34	1048.54	1040.72	1433.1	1409.5	1381.4	1361.5
x1 = 0.3877	1096.33	1088.9	1081.21	1073.75	1479.9	1455.9	1431.2	1407.8
x1 = 0.4839	1120.56	1113.33	1105.85	1098.72	1517	1490.9	1464.4	1439.8
x1 = 0.5909	1140.92	1133.83	1126.57	1119.63	1546.9	1521.3	1494.6	1471.5
x1 = 0.6925	1155.91	1148.93	1141.79	1134.99	1568.3	1543.5	1518.2	1494.6
x1 = 0.8001	1168.52	1161.62	1154.59	1147.87	1587.9	1563.2	1538.4	1516
x1 = 0.9042	1178.4	1171.56	1164.56	1157.92	1602.5	1577.6	1553.6	1531.3
x1 = 0.9535	1182.44	1175.62	1168.62	1162.01	1607.8	1583.1	1558.9	1536.3
